Results: US20040219228A1, “Animal model for inflammatory bowel disease” (Pfizer Inc, priority 2003, published 2004)

How the values were obtained:
Type in all cases: in vivo, mouse
[1] = test system: mdr1a^−/− mice; assay: mdr1a−/− mice given chlorinated drinking water as IBD model: clinical signs, body weight, colon and caecum weights; conditions: for Body weight (Mean ± s.e.m.): end of study; for Growth rate (Mean ± s.e.m.): over study period
Text: Forty male mdr1a^−/− mice (strain FVB.129P2-Pgy3^tm1 N7) and six control male mice (mdr1a^+/+) from the same genetic background (FVB; strain FVB/NTac) (6-8 weeks old) were obtained from Taconic Farms (U.S.A). Mice were individually housed in solid bottom cages containing autoclaved Bee Kay bedding from Bantin & Kingman (U.K.) with the addition of Envirodri, a nesting material made from virgin paper, free from deodorising chemicals, to provide enrichment. Mice were fed on RAT & Mouse No 1 maintenance diet (RMI (E) SQC) (Special Diet services, Witham, Essex, U.K.) on arrival at Pfizer. For this study we used bottled water and Klortabs (5 ppm) (Arrowmight Biosciences, U.K.) to eliminate the possibility of water borne spreading of bacterial pathogens and to provide a water supply with constant levels of chlorine. Water was changed twice a week. This study was carried out in accordance with UK legislation and approved by Pfizer's internal ethical review process.
Prior to commencing the study, all mice (40 mdr1a^−/− and 6 mdr1a^+/+) acclimatised for 14 days. […] A scoring system was devised with different weightings for different clinical signs (Table 1). The intention was that the score should reflect the severity of the colitis.
(§1) Following the acclimatisation period, mdr1a^−/− mice with mild and moderate disease scores (mild disease (0-3) was defined by absence of gain or mild body weight loss (<0.5 g) and no other symptoms, whereas moderate disease (4-10) was defined by similar symptoms as a previous group but with soft faeces or greater loss in body weight (>20%) were randomised into 4 groups and dosed subcutaneously (s.c.) with vehicle (water, n=8) or dexamethasone (0.05 mg/kg, n=9; 0.3 mg/kg, n=8 or 2 mg/kg, n=8) daily for 7 days. The 6 mdr1a^+/+ mice received vehicle (water). During the study period, one mouse from the group treated with 0.3 mg/kg dexamethasone was found dead and two were euthanised (one from the vehicle-treated group and one from the group treated with 0.05 mg/kg dexamethasone). At the end of the study all mice were euthanased. The colon and caecum from each mouse was removed and weighed. Each colon was then divided longitudinally so that one section could be processed for histological analysis and the other for cytokine measurement (see below).
(§2) Data were analysed for the 29 mdr1a^−/− and 6 mdr1a^+/+ mice, which completed the study. Differences between vehicle treated mdr1a^−/− and mdr1a^+/+ mice were analysed using a two sample t-test (assuming equal variance for IFN-γ, growth rate in the acclimatisation period and final weight, and unequal variance for IL-8, colon weight, caecum weight, colon to body weight ratio, caecum to body weight ratio and growth rate during the study period). The effects of dexamethasone treatment were analysed using analysis of variance (ANOVA) allowing for culling group.

[2] = test system: IL-8; assay: IL-8 levels in homogenised colon samples (ELISA); conditions: mdr1a−/− mice
Experimental: as §1
(§3) Each individual colon sample was homogenised three times for 30 seconds at 4° C. in 3ml of ice-cold Krebs' solution (Sigma Chemical Co. U.K.). Samples were centrifuged for 15 min at 35,000 g (4° C.) and supernatants were removed. IL-8 and IFN-γ levels were then measured by ELISA kits (R&D systems, U.K.). The detection limits of these kits were 31.2-2000 pg/ml. Protein levels was assayed in supernatants using the method described by Bradford (Bradford, M. (1976) Analyt. Biochem. 72, 248-254), utilising Bradford Reagent (Sigma).
as §2

[3] = test system: IFN-γ; assay: IFN-γ levels in homogenised colon samples (ELISA); conditions: mdr1a−/− mice
Experimental: as §1, §3, §2

[4] = test system: colon/rectum of mdr1a^−/− mice; assay: Histological grading of colitis severity (score 0-4); conditions: for Colitis severity score graded histologically (Mean ± s.e.m.): scale 0-4
Experimental: as §1
The animals were necropsied. The colon/rectum and caecum were weighed and colon/rectum, caecum, ileum, jejunum, duodenum, stomach, mesenteric nodes, thymus, kidney, spleen were sampled and fixed in 10% buffered formalin solution. The colon/rectum and ileum were prepared in a “Swiss roll” technique (Moolenbeek, C. & Ruitenberg E. J. (1981) Lab Anim 15(1):57-9) to evaluate their whole longitudinal section one slide. Tissues were processed routinely in an automatic tissue processor, embedded in paraffin, sectioned at 4-6 μm, stained with hematoxylin and eosin (HE), and examined histologically. The colitis was graded from 0 (no significant findings) to 4 (severe proliferative and ulcerative inflammation) according to the extent of the findings and severity of mucosal changes (Table 2) by a blinded observer. In addition, the mucosal height of the whole colon/rectum were assessed about every 100 μm with a standard interactive microcomputer-assisted image analysis system.
Colitis severity score is an ordered categorical measure graded on a scale of 0-4. This type of data is generally analysed using a proportional odds model, however due to the small sample size this was not appropriate and ANOVA was used. This makes the assumption of having normally distributed data, which although we had categorical data, seemed to hold approximately true. All analysis was carried out using Genstat 5 Release 4.2 for Windows.

[5] = 0.05 mg/kg s.c. daily for 7 days
[6] = 0.3 mg/kg s.c. daily for 7 days
[7] = lower doses (0.05 and 0.3 mg/kg s.c.)

C[C@@H]1C[C@H]2[C@@H]3CCC4=CC(=O)C=C[C@]4(C)[C@@]3(F)[C@@H](O)C[C@]2(C)[C@@]1(O)C(=O)CO [dexamethasone]
Clinical score (Mean ± s.e.m.) [1, 5]: 56 ± 8.9 | Body weight (Mean ± s.e.m.) [1, 5]: 22.2 ± 0.77 g | Growth rate (Mean ± s.e.m.) [1, 5]: -0.427 ± 0.099 g/day | Clinical score (Mean ± s.e.m.) [1, 6]: 37 ± 8.9 | Body weight (Mean ± s.e.m.) [1, 6]: 22.6 ± 0.77 g | Growth rate (Mean ± s.e.m.) [1, 6]: -0.260 ± 0.099 g/day | Clinical score (Mean ± s.e.m.) ([1]; 2 mg/kg s.c. daily for 7 days): 32 ± 8.3 | Body weight (Mean ± s.e.m.) ([1]; 2 mg/kg s.c. daily for 7 days): 22.7 ± 0.72 g | Growth rate (Mean ± s.e.m.) ([1]; 2 mg/kg s.c. daily for 7 days): -0.271 ± 0.093 g/day | Colon to body weight ratio ([1]; 2 mg/kg s.c. daily for 7 days, vehicle 3.0±0.28, P=0.017): 2.1±0.26 | Absolute colon weight ([1]; 2 mg/kg s.c. daily for 7 days, vehicle 691±52 mg, P<0.01): 456 ± 48 mg | Effect on overall clinical scores of colitis ([1]; 0.05-2 mg/kg s.c.): no effect | Effect on final body weight ([1]; any of the doses used): no significant effect | Effect on growth rate ([1]; any of the doses used): no significant effect | Effect on absolute colon weight vs. vehicle [1, 7]: no significant effect | Effect on colon to body weight ratio vs. vehicle [1, 7]: no significant effect | IL-8 level in homogenised colon (Mean ± s.e.m) [2, 5]: 317 ± 65.7 pg/mg protein | IL-8 level in homogenised colon (Mean ± s.e.m) [2, 6]: 264 ± 65.7 pg/mg protein | IL-8 level in homogenised colon (Mean ± s.e.m) ([2]; 2 mg/kg s.c. daily for 7 days): 220 ± 61.5 pg/mg protein | Effect on IL-8 levels in homogenised colons ([2]; any of the doses used): no effect | IFN-γ level in homogenised colon (Mean ± s.e.m) [3, 5]: 177 ± 32.6 pg/mg protein | IFN-γ level in homogenised colon (Mean ± s.e.m) [3, 6]: 169 ± 32.6 pg/mg protein | IFN-γ level in homogenised colon (Mean ± s.e.m) ([3]; 2 mg/kg s.c. daily for 7 days): 100 ± 30.5 pg/mg protein | Effect on IFN-γ levels in homogenised colons ([3]; any of the doses used): no effect | Colitis severity score graded histologically (Mean ± s.e.m.) [4, 5]: 4.0 ± 0.42 | Colitis severity score, difference from vehicle ([4]; 0.05 mg/kg s.c., p >0.05): 0.3 | Colitis severity score graded histologically (Mean ± s.e.m.) [4, 6]: 3.1 ± 0.42 | Colitis severity score, difference from vehicle ([4]; 0.3 mg/kg s.c., p >0.05): −0.6 | Colitis severity score graded histologically (Mean ± s.e.m.) ([4]; 2 mg/kg s.c. daily for 7 days): 2.4 ± 0.39 | Colitis severity score, difference from vehicle ([4]; 2 mg/kg s.c., p <0.05): −1.3
